In the kinase profiling compilation of Christmann-Franck et al. (2016):

target: MYLK2 (human) (UniProt Q9H1R3); assay: radiometric filter-binding kinase assay, Kinase HotSpot; conditions: compound 0.5 µM; ATP 10 µM

SMILES | residual activity [%]
O=C1NC(=O)c2cc(Nc3ccc(F)cc3)c(Nc3ccc(F)cc3)cc21 | 98.7

target: NEK9 (human) (UniProt Q8TD19); assay: as above; conditions: compound 0.5 µM; ATP 10 µM

SMILES | residual activity [%]
CCc1nc(-c2ccc(OC)cc2)[nH]c1-c1ccncc1 | 101
O=c1c(-c2ccc(F)cc2)c(-c2ccncc2)[nH]n1-c1ccc(Cl)cc1 | 107
Cn1cc(/C=C2\C(=O)Nc3ccc(S(N)(=O)=O)cc32)c2ccccc21 | 67.3
O=C1NC(=O)c2cc(Nc3ccc(F)cc3)c(Nc3ccc(F)cc3)cc21 | 107

target: CHEK1 (human) (UniProt O14757); assay: as above; conditions: compound 0.5 µM; ATP 10 µM

SMILES | residual activity [%]
CCc1nc(-c2ccc(OC)cc2)[nH]c1-c1ccncc1 | 98.6
O=c1c(-c2ccc(F)cc2)c(-c2ccncc2)[nH]n1-c1ccc(Cl)cc1 | 101
Cn1cc(/C=C2\C(=O)Nc3ccc(S(N)(=O)=O)cc32)c2ccccc21 | 19.5
O=C1NC(=O)c2cc(Nc3ccc(F)cc3)c(Nc3ccc(F)cc3)cc21 | 104

target: TSSK2 (human) (UniProt Q96PF2); assay: as above; conditions: compound 0.5 µM; ATP 10 µM

SMILES | residual activity [%]
CCc1nc(-c2ccc(OC)cc2)[nH]c1-c1ccncc1 | 98.7
O=c1c(-c2ccc(F)cc2)c(-c2ccncc2)[nH]n1-c1ccc(Cl)cc1 | 80
Cn1cc(/C=C2\C(=O)Nc3ccc(S(N)(=O)=O)cc32)c2ccccc21 | 84
O=C1NC(=O)c2cc(Nc3ccc(F)cc3)c(Nc3ccc(F)cc3)cc21 | 97.2

target: DSTYK (human) (UniProt Q6XUX3); assay: as above; conditions: compound 0.5 µM; ATP 10 µM
Sequence (Q6XUX3 whole entry, looked up): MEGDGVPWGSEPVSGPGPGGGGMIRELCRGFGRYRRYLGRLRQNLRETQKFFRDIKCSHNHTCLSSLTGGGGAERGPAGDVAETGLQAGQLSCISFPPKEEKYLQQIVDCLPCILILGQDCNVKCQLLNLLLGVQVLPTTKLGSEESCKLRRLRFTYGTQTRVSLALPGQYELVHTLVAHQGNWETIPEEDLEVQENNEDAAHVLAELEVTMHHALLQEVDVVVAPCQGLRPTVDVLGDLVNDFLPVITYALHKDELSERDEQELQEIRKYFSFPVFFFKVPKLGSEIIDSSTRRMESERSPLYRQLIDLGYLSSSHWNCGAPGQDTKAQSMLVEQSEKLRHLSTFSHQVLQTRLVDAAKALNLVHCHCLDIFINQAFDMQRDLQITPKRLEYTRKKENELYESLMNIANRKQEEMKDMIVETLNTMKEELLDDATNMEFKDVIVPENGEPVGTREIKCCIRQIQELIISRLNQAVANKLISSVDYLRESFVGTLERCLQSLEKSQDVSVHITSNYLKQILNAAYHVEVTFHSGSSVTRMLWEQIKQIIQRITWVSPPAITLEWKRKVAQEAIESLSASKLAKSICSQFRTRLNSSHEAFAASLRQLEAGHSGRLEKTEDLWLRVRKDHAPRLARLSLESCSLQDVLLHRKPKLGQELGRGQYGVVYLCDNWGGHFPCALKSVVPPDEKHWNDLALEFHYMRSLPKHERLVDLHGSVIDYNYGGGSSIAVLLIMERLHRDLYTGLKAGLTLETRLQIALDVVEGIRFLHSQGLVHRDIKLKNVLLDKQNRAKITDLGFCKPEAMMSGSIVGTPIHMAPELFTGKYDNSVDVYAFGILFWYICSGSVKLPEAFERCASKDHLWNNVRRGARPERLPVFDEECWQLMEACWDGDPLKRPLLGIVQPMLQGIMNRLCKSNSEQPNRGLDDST

SMILES | residual activity [%]
CCc1nc(-c2ccc(OC)cc2)[nH]c1-c1ccncc1 | 99.6
O=c1c(-c2ccc(F)cc2)c(-c2ccncc2)[nH]n1-c1ccc(Cl)cc1 | 92.9
Cn1cc(/C=C2\C(=O)Nc3ccc(S(N)(=O)=O)cc32)c2ccccc21 | 92.5
O=C1NC(=O)c2cc(Nc3ccc(F)cc3)c(Nc3ccc(F)cc3)cc21 | 95.6

target: MINK1 (human) (UniProt Q8N4C8); assay: as above; conditions: compound 0.5 µM; ATP 10 µM

SMILES | residual activity [%]
CCc1nc(-c2ccc(OC)cc2)[nH]c1-c1ccncc1 | 103
O=c1c(-c2ccc(F)cc2)c(-c2ccncc2)[nH]n1-c1ccc(Cl)cc1 | 97.3
Cn1cc(/C=C2\C(=O)Nc3ccc(S(N)(=O)=O)cc32)c2ccccc21 | 53.7
O=C1NC(=O)c2cc(Nc3ccc(F)cc3)c(Nc3ccc(F)cc3)cc21 | 99

target: CAMK4 (human) (UniProt Q16566); assay: as above; conditions: compound 0.5 µM; ATP 10 µM

SMILES | residual activity [%]
CCc1nc(-c2ccc(OC)cc2)[nH]c1-c1ccncc1 | 97.5
O=c1c(-c2ccc(F)cc2)c(-c2ccncc2)[nH]n1-c1ccc(Cl)cc1 | 104
Cn1cc(/C=C2\C(=O)Nc3ccc(S(N)(=O)=O)cc32)c2ccccc21 | 96.4
O=C1NC(=O)c2cc(Nc3ccc(F)cc3)c(Nc3ccc(F)cc3)cc21 | 98.7

target: EPHB3 (human) (UniProt P54753); assay: as above; conditions: compound 0.5 µM; ATP 10 µM

SMILES | residual activity [%]
CCc1nc(-c2ccc(OC)cc2)[nH]c1-c1ccncc1 | 107
O=c1c(-c2ccc(F)cc2)c(-c2ccncc2)[nH]n1-c1ccc(Cl)cc1 | 92.2
Cn1cc(/C=C2\C(=O)Nc3ccc(S(N)(=O)=O)cc32)c2ccccc21 | 93.2
O=C1NC(=O)c2cc(Nc3ccc(F)cc3)c(Nc3ccc(F)cc3)cc21 | 94.7

target: CHEK2 (human) (UniProt O96017); assay: as above; conditions: compound 0.5 µM; ATP 10 µM
Sequence (O96017 whole entry, looked up): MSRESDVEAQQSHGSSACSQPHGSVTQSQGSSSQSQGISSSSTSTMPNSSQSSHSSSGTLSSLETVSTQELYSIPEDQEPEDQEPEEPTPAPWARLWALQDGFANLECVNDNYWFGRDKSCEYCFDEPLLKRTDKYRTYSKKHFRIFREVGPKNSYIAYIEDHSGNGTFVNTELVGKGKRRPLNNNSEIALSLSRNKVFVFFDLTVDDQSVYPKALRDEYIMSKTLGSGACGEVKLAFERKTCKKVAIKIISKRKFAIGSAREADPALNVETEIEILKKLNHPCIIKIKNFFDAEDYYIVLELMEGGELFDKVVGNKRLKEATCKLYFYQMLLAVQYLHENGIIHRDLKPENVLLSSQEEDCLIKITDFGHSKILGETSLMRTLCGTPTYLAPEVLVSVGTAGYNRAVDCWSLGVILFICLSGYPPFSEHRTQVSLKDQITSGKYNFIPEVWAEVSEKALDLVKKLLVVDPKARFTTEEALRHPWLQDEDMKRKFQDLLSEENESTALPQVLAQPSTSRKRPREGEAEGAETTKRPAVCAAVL

SMILES | residual activity [%]
CCc1nc(-c2ccc(OC)cc2)[nH]c1-c1ccncc1 | 102
O=c1c(-c2ccc(F)cc2)c(-c2ccncc2)[nH]n1-c1ccc(Cl)cc1 | 91.4
Cn1cc(/C=C2\C(=O)Nc3ccc(S(N)(=O)=O)cc32)c2ccccc21 | 1.3
O=C1NC(=O)c2cc(Nc3ccc(F)cc3)c(Nc3ccc(F)cc3)cc21 | 94.3

target: JAK3 JH1 JH2 (human) (UniProt P52333); assay: as above; conditions: compound 0.5 µM; ATP 10 µM

SMILES | residual activity [%]
CCc1nc(-c2ccc(OC)cc2)[nH]c1-c1ccncc1 | 96.1
O=c1c(-c2ccc(F)cc2)c(-c2ccncc2)[nH]n1-c1ccc(Cl)cc1 | 106
Cn1cc(/C=C2\C(=O)Nc3ccc(S(N)(=O)=O)cc32)c2ccccc21 | 43.7
O=C1NC(=O)c2cc(Nc3ccc(F)cc3)c(Nc3ccc(F)cc3)cc21 | 93.9

target: PRKD1 (human) (UniProt Q15139); assay: as above; conditions: compound 0.5 µM; ATP 10 µM
Sequence (Q15139 whole entry, looked up): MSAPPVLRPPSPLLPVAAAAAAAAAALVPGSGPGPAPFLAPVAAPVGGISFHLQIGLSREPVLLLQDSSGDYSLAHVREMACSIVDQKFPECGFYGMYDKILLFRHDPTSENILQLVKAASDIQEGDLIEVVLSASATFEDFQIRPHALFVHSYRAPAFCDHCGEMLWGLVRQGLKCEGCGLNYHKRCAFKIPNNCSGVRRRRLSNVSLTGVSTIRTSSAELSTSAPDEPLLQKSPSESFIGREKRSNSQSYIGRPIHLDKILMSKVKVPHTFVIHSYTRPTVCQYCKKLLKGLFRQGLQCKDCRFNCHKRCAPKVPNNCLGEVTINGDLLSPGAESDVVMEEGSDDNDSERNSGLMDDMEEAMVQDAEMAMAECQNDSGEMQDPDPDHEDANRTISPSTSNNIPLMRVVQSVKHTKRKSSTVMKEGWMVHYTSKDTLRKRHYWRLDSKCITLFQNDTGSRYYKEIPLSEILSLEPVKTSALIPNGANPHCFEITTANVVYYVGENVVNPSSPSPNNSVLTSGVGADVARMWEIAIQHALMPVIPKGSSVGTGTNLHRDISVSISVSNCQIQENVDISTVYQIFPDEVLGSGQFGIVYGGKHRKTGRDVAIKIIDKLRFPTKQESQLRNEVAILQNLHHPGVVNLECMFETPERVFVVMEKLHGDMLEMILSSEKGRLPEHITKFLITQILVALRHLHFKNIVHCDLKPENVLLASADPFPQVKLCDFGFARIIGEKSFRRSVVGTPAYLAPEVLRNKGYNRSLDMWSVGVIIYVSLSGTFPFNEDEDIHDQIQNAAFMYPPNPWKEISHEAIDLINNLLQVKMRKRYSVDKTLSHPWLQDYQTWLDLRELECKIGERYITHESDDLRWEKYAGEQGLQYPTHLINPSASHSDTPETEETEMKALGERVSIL

SMILES | residual activity [%]
CCc1nc(-c2ccc(OC)cc2)[nH]c1-c1ccncc1 | 100
O=c1c(-c2ccc(F)cc2)c(-c2ccncc2)[nH]n1-c1ccc(Cl)cc1 | 84.7
Cn1cc(/C=C2\C(=O)Nc3ccc(S(N)(=O)=O)cc32)c2ccccc21 | 80
O=C1NC(=O)c2cc(Nc3ccc(F)cc3)c(Nc3ccc(F)cc3)cc21 | 92.2

target: CDK2 CCNA2 (human) (UniProt P24941+P20248); assay: as above; conditions: compound 0.5 µM; ATP 10 µM

SMILES | residual activity [%]
CCc1nc(-c2ccc(OC)cc2)[nH]c1-c1ccncc1 | 99.5
O=c1c(-c2ccc(F)cc2)c(-c2ccncc2)[nH]n1-c1ccc(Cl)cc1 | 89.9
Cn1cc(/C=C2\C(=O)Nc3ccc(S(N)(=O)=O)cc32)c2ccccc21 | 66.2
O=C1NC(=O)c2cc(Nc3ccc(F)cc3)c(Nc3ccc(F)cc3)cc21 | 95.3

target: MAP3K7 TAB1 (human) (UniProt O43318+Q15750); assay: as above; conditions: compound 0.5 µM; ATP 10 µM

SMILES | residual activity [%]
CCc1nc(-c2ccc(OC)cc2)[nH]c1-c1ccncc1 | 96.6
O=c1c(-c2ccc(F)cc2)c(-c2ccncc2)[nH]n1-c1ccc(Cl)cc1 | 100
Cn1cc(/C=C2\C(=O)Nc3ccc(S(N)(=O)=O)cc32)c2ccccc21 | 48.9
O=C1NC(=O)c2cc(Nc3ccc(F)cc3)c(Nc3ccc(F)cc3)cc21 | 98.8

target: MYO3B (human) (UniProt Q8WXR4); assay: as above; conditions: compound 0.5 µM; ATP 10 µM
Sequence (Q8WXR4 whole entry, looked up): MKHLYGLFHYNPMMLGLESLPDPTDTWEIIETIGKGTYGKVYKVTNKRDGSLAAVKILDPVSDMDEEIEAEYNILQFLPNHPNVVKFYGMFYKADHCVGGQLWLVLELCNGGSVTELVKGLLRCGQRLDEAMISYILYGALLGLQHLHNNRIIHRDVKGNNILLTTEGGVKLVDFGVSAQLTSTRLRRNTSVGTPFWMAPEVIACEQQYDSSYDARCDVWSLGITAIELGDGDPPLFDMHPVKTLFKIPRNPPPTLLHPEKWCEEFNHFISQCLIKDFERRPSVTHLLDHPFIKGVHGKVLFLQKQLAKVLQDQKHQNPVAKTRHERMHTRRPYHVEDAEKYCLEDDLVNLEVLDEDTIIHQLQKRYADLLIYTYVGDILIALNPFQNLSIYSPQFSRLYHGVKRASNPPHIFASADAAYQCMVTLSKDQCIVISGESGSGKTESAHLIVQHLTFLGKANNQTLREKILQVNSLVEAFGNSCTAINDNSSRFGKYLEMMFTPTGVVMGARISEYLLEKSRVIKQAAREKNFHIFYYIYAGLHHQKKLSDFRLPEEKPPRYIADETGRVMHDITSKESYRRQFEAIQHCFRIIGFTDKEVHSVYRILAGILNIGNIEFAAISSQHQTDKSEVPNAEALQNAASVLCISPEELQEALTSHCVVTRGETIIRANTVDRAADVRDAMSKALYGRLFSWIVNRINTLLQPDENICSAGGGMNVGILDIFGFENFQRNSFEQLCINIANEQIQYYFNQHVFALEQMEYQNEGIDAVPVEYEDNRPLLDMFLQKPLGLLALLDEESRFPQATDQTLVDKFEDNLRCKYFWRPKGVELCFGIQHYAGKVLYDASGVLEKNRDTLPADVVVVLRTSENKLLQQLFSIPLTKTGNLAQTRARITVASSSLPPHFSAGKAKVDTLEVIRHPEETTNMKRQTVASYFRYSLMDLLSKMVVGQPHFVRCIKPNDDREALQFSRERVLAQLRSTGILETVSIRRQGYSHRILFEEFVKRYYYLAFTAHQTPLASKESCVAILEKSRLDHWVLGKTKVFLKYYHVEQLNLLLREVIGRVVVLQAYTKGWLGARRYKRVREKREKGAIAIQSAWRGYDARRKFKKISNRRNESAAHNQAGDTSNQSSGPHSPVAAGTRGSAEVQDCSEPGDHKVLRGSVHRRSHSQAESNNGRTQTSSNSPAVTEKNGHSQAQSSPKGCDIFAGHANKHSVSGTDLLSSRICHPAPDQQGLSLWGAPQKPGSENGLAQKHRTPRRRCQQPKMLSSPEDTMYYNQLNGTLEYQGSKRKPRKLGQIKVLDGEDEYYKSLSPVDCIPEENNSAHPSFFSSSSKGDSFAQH

SMILES | residual activity [%]
CCc1nc(-c2ccc(OC)cc2)[nH]c1-c1ccncc1 | 107
O=c1c(-c2ccc(F)cc2)c(-c2ccncc2)[nH]n1-c1ccc(Cl)cc1 | 90.7
Cn1cc(/C=C2\C(=O)Nc3ccc(S(N)(=O)=O)cc32)c2ccccc21 | 74.6
O=C1NC(=O)c2cc(Nc3ccc(F)cc3)c(Nc3ccc(F)cc3)cc21 | 98.2

target: IKBKE (human) (UniProt Q14164); assay: as above; conditions: compound 0.5 µM; ATP 10 µM

SMILES | residual activity [%]
CCc1nc(-c2ccc(OC)cc2)[nH]c1-c1ccncc1 | 99.8
O=c1c(-c2ccc(F)cc2)c(-c2ccncc2)[nH]n1-c1ccc(Cl)cc1 | 98.3
Cn1cc(/C=C2\C(=O)Nc3ccc(S(N)(=O)=O)cc32)c2ccccc21 | 21.9
O=C1NC(=O)c2cc(Nc3ccc(F)cc3)c(Nc3ccc(F)cc3)cc21 | 100

target: BRAF (human) (UniProt P15056); assay: as above; conditions: compound 0.5 µM; ATP 10 µM

SMILES | residual activity [%]
CCc1nc(-c2ccc(OC)cc2)[nH]c1-c1ccncc1 | 102
O=C1NC(=O)c2cc(Nc3ccc(F)cc3)c(Nc3ccc(F)cc3)cc21 | 94.2

target: PHKG2 (human) (UniProt P15735); assay: as above; conditions: compound 0.5 µM; ATP 10 µM
Sequence (P15735 whole entry, looked up): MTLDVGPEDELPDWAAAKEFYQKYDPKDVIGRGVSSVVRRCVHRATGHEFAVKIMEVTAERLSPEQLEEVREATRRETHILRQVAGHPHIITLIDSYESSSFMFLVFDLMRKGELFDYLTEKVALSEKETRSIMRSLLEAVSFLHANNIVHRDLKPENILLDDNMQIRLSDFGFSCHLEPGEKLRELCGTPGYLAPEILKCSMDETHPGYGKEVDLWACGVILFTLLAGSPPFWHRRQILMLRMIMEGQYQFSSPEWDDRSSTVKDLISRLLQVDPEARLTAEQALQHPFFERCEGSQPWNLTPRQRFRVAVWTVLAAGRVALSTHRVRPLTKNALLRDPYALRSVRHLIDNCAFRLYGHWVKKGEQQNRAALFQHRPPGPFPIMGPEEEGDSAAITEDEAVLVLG

SMILES | residual activity [%]
CCc1nc(-c2ccc(OC)cc2)[nH]c1-c1ccncc1 | 111
O=c1c(-c2ccc(F)cc2)c(-c2ccncc2)[nH]n1-c1ccc(Cl)cc1 | 121
Cn1cc(/C=C2\C(=O)Nc3ccc(S(N)(=O)=O)cc32)c2ccccc21 | 52
O=C1NC(=O)c2cc(Nc3ccc(F)cc3)c(Nc3ccc(F)cc3)cc21 | 97.1

target: TTK (human) (UniProt P33981); assay: as above; conditions: compound 0.5 µM; ATP 10 µM
Sequence (P33981 whole entry, looked up): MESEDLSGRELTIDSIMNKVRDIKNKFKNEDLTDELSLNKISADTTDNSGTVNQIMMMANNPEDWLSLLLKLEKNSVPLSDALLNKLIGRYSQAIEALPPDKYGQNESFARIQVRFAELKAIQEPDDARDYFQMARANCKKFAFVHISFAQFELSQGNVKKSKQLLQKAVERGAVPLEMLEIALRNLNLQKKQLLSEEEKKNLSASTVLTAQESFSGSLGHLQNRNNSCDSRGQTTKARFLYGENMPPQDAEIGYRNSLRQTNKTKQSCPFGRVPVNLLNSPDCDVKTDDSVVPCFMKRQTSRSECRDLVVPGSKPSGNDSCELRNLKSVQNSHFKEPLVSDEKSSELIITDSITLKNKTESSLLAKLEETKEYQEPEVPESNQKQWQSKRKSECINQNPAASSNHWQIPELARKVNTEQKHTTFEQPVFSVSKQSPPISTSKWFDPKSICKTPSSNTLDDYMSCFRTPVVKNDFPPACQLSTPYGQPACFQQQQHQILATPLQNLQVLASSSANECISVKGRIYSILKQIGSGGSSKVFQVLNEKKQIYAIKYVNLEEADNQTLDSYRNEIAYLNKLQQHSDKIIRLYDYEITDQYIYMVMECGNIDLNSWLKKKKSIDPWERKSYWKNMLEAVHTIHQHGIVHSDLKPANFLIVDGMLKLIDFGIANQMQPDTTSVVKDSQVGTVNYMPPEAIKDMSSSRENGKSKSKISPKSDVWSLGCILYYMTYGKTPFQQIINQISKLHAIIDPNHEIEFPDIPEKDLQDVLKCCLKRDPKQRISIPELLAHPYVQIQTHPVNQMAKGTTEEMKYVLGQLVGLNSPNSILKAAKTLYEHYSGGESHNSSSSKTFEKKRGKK

SMILES | residual activity [%]
CCc1nc(-c2ccc(OC)cc2)[nH]c1-c1ccncc1 | 105
O=c1c(-c2ccc(F)cc2)c(-c2ccncc2)[nH]n1-c1ccc(Cl)cc1 | 110
Cn1cc(/C=C2\C(=O)Nc3ccc(S(N)(=O)=O)cc32)c2ccccc21 | 97.3
O=C1NC(=O)c2cc(Nc3ccc(F)cc3)c(Nc3ccc(F)cc3)cc21 | 95.4

target: PRKACG (human) (UniProt P22612); assay: as above; conditions: compound 0.5 µM; ATP 10 µM

SMILES | residual activity [%]
CCc1nc(-c2ccc(OC)cc2)[nH]c1-c1ccncc1 | 103
O=c1c(-c2ccc(F)cc2)c(-c2ccncc2)[nH]n1-c1ccc(Cl)cc1 | 91.9
Cn1cc(/C=C2\C(=O)Nc3ccc(S(N)(=O)=O)cc32)c2ccccc21 | 101
O=C1NC(=O)c2cc(Nc3ccc(F)cc3)c(Nc3ccc(F)cc3)cc21 | 101

target: LCK (human) (UniProt P06239); assay: as above; conditions: compound 0.5 µM; ATP 10 µM

SMILES | residual activity [%]
O=c1c(-c2ccc(F)cc2)c(-c2ccncc2)[nH]n1-c1ccc(Cl)cc1 | 101
Cn1cc(/C=C2\C(=O)Nc3ccc(S(N)(=O)=O)cc32)c2ccccc21 | 57.6
O=C1NC(=O)c2cc(Nc3ccc(F)cc3)c(Nc3ccc(F)cc3)cc21 | 98.4

target: TLK2 (human) (UniProt Q86UE8); assay: as above; conditions: compound 0.5 µM; ATP 10 µM

SMILES | residual activity [%]
CCc1nc(-c2ccc(OC)cc2)[nH]c1-c1ccncc1 | 102
O=c1c(-c2ccc(F)cc2)c(-c2ccncc2)[nH]n1-c1ccc(Cl)cc1 | 109
Cn1cc(/C=C2\C(=O)Nc3ccc(S(N)(=O)=O)cc32)c2ccccc21 | 63.2
O=C1NC(=O)c2cc(Nc3ccc(F)cc3)c(Nc3ccc(F)cc3)cc21 | 93.5

target: PAK6 (human) (UniProt Q9NQU5); assay: as above; conditions: compound 0.5 µM; ATP 10 µM

SMILES | residual activity [%]
CCc1nc(-c2ccc(OC)cc2)[nH]c1-c1ccncc1 | 102
O=c1c(-c2ccc(F)cc2)c(-c2ccncc2)[nH]n1-c1ccc(Cl)cc1 | 73.5
Cn1cc(/C=C2\C(=O)Nc3ccc(S(N)(=O)=O)cc32)c2ccccc21 | 90.1
O=C1NC(=O)c2cc(Nc3ccc(F)cc3)c(Nc3ccc(F)cc3)cc21 | 106
